Literature values in patent US6737430B2, “Mutual prodrug of amlodipine and atorvastatin” (Pfizer, Inc., priority 2000, dated 2004).

How the values were obtained:
calcium channel = conditions: cited from earlier work
[1] = test system: smooth muscle cell migration; conditions: cited from earlier work

CCOC(=O)C1=C(COCCN)NC(C)=C(C(=O)OC)[C@H]1c1ccccc1Cl (single isomer, unassigned) [(R) enantiomer, R(−)-amlodipine]
calcium channel blocking activity (calcium channel): little or no calcium channel blocking activity | inhibition of smooth muscle cell migration [1]: potent inhibitor of smooth muscle cell migration
